In US20260297105A1, “RAF-MEK PROTEIN COMPLEX MODULATORS AND METHODS OF USE THEREOF” (GANDEEVA THERAPEUTICS, INC., priority 2023, published 2026) one finds IC50 and EC50 data, which are given here for 18 compounds.

For one assay, the system named is NCI-H292 cells. The experiment in a line: Cell viability assay (CellTiter-Glo), NCI-H292. The format is cell-based. Particulars: Homo sapiens, 72 hrs, read-out: Cell Viability Assay: IC50 Determination NCI-H292. The protocol:
Cell culture: HCTI 16, HT-29, and NCI-H292 cells were acquired from American Type Culture Collection (ATCC). HCT116 and HT-29 cells were maintained in ATCC-formulated McCoy's 5a Medium Modified supplemented with 10% fetal bovine serum, NCI-H292 cells were cultured in ATCC formulated RPMI-1640 supplemented with 10% fetal bovine serum. All cells were maintained at 37° C., 5% CO2.
Efficacy of exemplary compounds in inhibition of cell viability: HCT116 and HT-29 cells were plated at 4,000 cells per well and NCI-H292 cells were plated at 2,000 cells per well in their respective media in 384-well white, TC-treated plates (Corning). After 24 hours of incubation, the cells were treated with vehicle (DMSO) or test compounds (0.1% DMSO in final volume) for 72 hrs. The plate was equilibrated at room temperature for 10 mins followed by addition of a 1:1 volume of CellTiter-Glo® reagent (Promega). The contents were mixed for 2 mins on an orbital shaker to induce lysis. The plate was incubated at room temperature for 10 mins to stabilize luminescent signal before measuring luminescence on a Cytation5 microplate reader (Agilent). % inhibition as a function of compound concentration from 3 replicate wells was fit with a 4-parameter logistic curve using GraphPad Prism or CDD Vault to derive IC50 values.
In this table, for the BRAF ADP Glo kinase assay, “A” indicates IC50 of less than 5 nM; “B” indicates IC50 of between 5 nM to 50 nM; and “C” indicates IC50 of between 50 nM to 500 nM. “D” indicates IC50 of greater than 500 nM. For the BRAF-MEK TR-FRET assay, “A” indicates EC50 of less than 50 nM; “B” indicates EC50 of between 50 nM to 200 nM; and “C” indicates EC50 of between 200 nM to 1 μM. “D′” indicates EC50 of greater than 1 μM. For the AlphaLisa P-ERK assay, “A” indicates IC50 of less than 1 nM; “B” indicates IC50 of between 1 nM to 10 nM; and “C” indicates IC50 of between 10 nM to 100 nM. “D” indicates IC50 of greater than 100 nM. For the cell viability assay, “A” indicates IC50 of less than 1 nM; “B” indicates IC50 of between 1 nM to 10 nM; and “C” indicates IC50 of between 10 nM to 100 nM. “D” indicates IC50 of greater than 100 nM.
On the technique in general: In ATP-based viability assays light output follows the ATP content of the culture.

The next assay has as its target T1, MEK1 (Homo sapiens, UniProt Q02750).
T1 construct: purchased SignalChem M02-14H
Nature of the assay: MEK1 kinase cascade assay (ADP-Glo), inhibition of MEK1 kinase activity. The format is biochemical. The note with it: 25 nM BRAF, 6.25 nM MEK1, 0.5 μM ERK, 1 mM ATP; 20 min preincubation, 1 hr at 25° C.; read-out: BRAF ADP Glo kinase assay V3 (IC50). The method in brief:
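Cascade format with ADP-Glo read-out: BRAF (25 nM) and compound, 1% DMSO, 20 mins at 25° C, then MEK1 6.25 nM, ERK1 0.5 μM, ATP 1 mM for 1 hr at 25° C in HEPES pH 7.5 buffer with MgCl2, CHAPS and DTT. Percent inhibition, scaled between DMSO and 1 μM Trametinib, was fit by 4-parameter logistic to give IC50 (2 replicate wells).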
(In general: ADP-Glo first removes unused ATP, then detects ADP through luciferase.)

For another assay, the system named is BRAF-MEK1. Nature of the assay: BRAF-MEK TR-FRET assay, stabilization of MEK1 and BRAF interaction. The format is binding. Particulars: 4 nM BRAF, 10 nM MEK, 100 μM ATP; 1 hr at 25° C.; read-out: BRAF-MEK TR-FRET Assay (EC50, fold stabilization). The method in brief:
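Read-out is fold stabilization (treated FRET ratio/DMSO, Em 665/620 nm), fit 4-parameter for EC50 from 2 replicates. Compounds sat with 4 nM GST-BRAF and 10 nM in-house His-MEK1 1 h at 25° C (Tris pH 7.5, MgCl2, 100 μM ATP), then detection antibodies 1 h.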

Structures are written as SMILES. A value given as a limit tells only on which side of the number the result lay.

T1 sequence (Q02750 whole entry): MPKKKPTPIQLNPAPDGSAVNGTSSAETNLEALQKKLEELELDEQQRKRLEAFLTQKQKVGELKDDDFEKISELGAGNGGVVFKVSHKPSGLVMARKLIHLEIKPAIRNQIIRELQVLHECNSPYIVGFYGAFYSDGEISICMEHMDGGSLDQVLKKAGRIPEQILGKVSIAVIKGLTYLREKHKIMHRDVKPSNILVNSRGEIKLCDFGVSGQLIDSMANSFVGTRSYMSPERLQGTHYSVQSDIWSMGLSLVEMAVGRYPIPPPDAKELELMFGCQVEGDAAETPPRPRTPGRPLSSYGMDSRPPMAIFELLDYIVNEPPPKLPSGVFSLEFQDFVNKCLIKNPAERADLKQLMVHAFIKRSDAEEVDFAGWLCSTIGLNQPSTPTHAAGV
T1 sequence (P15056 445-723 partner limits assumed): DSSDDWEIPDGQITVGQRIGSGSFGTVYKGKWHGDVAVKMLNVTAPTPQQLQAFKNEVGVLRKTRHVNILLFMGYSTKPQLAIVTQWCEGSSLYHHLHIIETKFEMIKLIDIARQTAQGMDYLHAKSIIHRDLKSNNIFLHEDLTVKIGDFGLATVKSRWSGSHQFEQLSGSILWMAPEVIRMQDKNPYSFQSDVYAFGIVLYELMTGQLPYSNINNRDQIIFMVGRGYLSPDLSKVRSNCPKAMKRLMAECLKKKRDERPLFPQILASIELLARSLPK

Take `C[C@@H]1c2ccc(Oc3cccnn3)c(F)c2OC(=O)N1Cc1cccc(NS(=O)(=O)N(C)C)c1F` (single isomer, unassigned) [Compound 43]: the IC50 (as a rule, the concentration that inhibits the measured activity by half) was 0.001 to 0.01 µM with NCI-H292 cells and below 0.005 µM on MEK1. Further, the EC50 in the assay on BRAF-MEK1 was below 0.05 µM.
As for `CNS(=O)(=O)Nc1nccc(CN2C(=O)Oc3cc(Oc4ncco4)c(F)cc3C23CCC3)c1F` [Compound 165, 6-fluoro-3-{[3-fluoro-2-(methylaminosulfonylamino)-4-pyridyl]methyl}-7-(1,3-oxazol-2-yloxy)-2H,3H-spiro[1,3-benzoxazine-4,1′-cyclobutan]-2-one], the IC50 is 0.001 to 0.01 µM with NCI-H292 cells and below 0.005 µM at MEK1. The EC50 in the assay with BRAF-MEK1 is below 0.05 µM.
`CN(C)C(=O)Oc1ccc2c(c1)OC(=O)N(Cc1cccc(NS(=O)(=O)N3CCC(F)C3)c1F)C2` (stereo not shown) [Compound 113, 3-(2-fluoro-3-((3-fluoropyrrolidine)-1-sulfonamido)benzyl)-2-oxo-3,4-dihydro-2H-benzo[e][1,3]oxazin-7-yl dimethylcarbamate]: the figures for the IC50 in the assay on NCI-H292 cells and at MEK1 were 0.001 to 0.01 µM and 0.005 to 0.05 µM, respectively. Further, the EC50 with BRAF-MEK1 fell in the range of 0.2 to 1 µM.
For `CNS(=O)(=O)Nc1cccc(CN2C(=O)Oc3cc(OC(=O)N(C)C)c(Cl)cc3[C@@H]2C)c1F` [Compound 108, (S)-6-chloro-7-(dimethylaminocarbonyloxy)-3-{[2-fluoro-3-(methylaminosulfonylamino)phenyl]methyl}-4-methyl-3,4-dihydro-2H-1,3-benzoxazin-2-one], the results for the IC50 in the assay with NCI-H292 cells and at MEK1 were below 0.001 µM and 0.005 to 0.05 µM, respectively. The EC50 in the assay on BRAF-MEK1 was in the range of 0.05 to 0.2 µM.
Take `CNS(=O)(=O)Nc1cccc(CN2C(=O)Oc3cc(Oc4ncco4)ccc3C2(C)C)c1F` [Compound 74, 3-({2-fluoro-3-[(methylsulfamoyl)amino]phenyl}methyl)-4,4-dimethyl-7-(1,3-oxazol-2-yloxy)-3,4-dihydro-2H-1,3-benzoxazin-2-one]: the IC50 in the assay on NCI-H292 cells was in the range of 0.001 to 0.01 µM; on MEK1, 0.005 to 0.05 µM.
On to `CNS(=O)(=O)Nc1cccc(CN2C(=O)Oc3cc(Oc4ncco4)c(F)cc3C23COC3)c1F` [Compound 73], for which the IC50 lay in the range of 0.001 to 0.01 µM in the assay on NCI-H292 cells and 0.005 to 0.05 µM on MEK1.
On to `CNS(=O)(=O)Nc1cccc(CN2C(=O)Oc3cc(Oc4ncco4)cc(F)c3[C@@H]2C)c1F` (single isomer, unassigned) [Compound 86, (S)-5-fluoro-3-({2-fluoro-3-(methylsulfamoyl)amino]phenyl}methyl)-4-methyl-7-(1,3-oxazol-2-yloxy)-3,4-dihydro-2H-1,3-benzoxazin-2-one or (R)-5-fluoro-3-({2-fluoro-3-(methylsulfamoyl)amino]phenyl}methyl)-4-methyl-7-(1,3-oxazol-2-yloxy)-3,4-dihydro-2H-1,3-benzoxazin-2-one], for which the IC50 at MEK1 lay in the range of 0.005 to 0.05 µM. The EC50 in the assay with BRAF-MEK1 was in the range of 0.2 to 1 µM.
For `CNS(=O)(=O)Nc1nccc(CN2C(=O)Oc3cc(Oc4cccnn4)cnc3C23CC3)c1F` [Compound 202, 2′-{[3-fluoro-2-(methylaminosulfonylamino)-4-pyridyl]methyl}-6′-(3-pyridazinyloxy)-2′H,3′H-4′-oxa-2′,8′-diazaspiro[cyclopropane-1,1′-naphthalen]-3′-one] the same measures were below 0.005 µM and below 0.05 µM.
Taken in the same sequence, the figures for `CN(C)C(=O)Oc1ccc2c(c1)OC(=O)N(Cc1cccc(NS(=O)(=O)N3CCOCC3)c1F)C2` [Compound 110, 3-(2-fluoro-3-(morpholine-4-sulfonamido)benzyl)-2-oxo-3,4-dihydro-2H-benzo[e][1,3]oxazin-7-yl dimethylcarbamate] were 0.005 to 0.05 µM and 0.2 to 1 µM.
Taken in the same sequence, the figures for `CNS(=O)(=O)Nc1nccc(CN2C(=O)Oc3c(ccc(Oc4nccnn4)c3F)C23CCC3)c1F` [Compound 177, 8-fluoro-3-{[3-fluoro-2-(methylaminosulfonylamino)-4-pyridyl]methyl}-7-(1,2,4-triazin-3-yloxy)-2H,3H-spiro[1,3-benzoxazine-4,1′-cyclobutan]-2-one] were below 0.005 µM and below 0.05 µM.
`CNS(=O)(=O)Nc1cc(F)cc(CN2Cc3ccc(Oc4cccnn4)cc3OC2=O)c1F` [Compound 200, 3-{[2,5-difluoro-3-(methylaminosulfonylamino)phenyl]methyl}-7-(3-pyridazinyloxy)-3,4-dihydro-2H-1,3-benzoxazin-2-one]: the IC50 at MEK1 fell in the range of 0.005 to 0.05 µM. For the same compound, the EC50 in the assay with BRAF-MEK1 was in the range of 0.2 to 1 µM.
Taken in the same sequence, the figures for `CNS(=O)(=O)Nc1nccc(CN2C(=O)Oc3cc(Oc4cccnn4)ccc3C23COC3)c1F` [Compound 24, 3-({3-fluoro-2-[(methylsulfamoyl)amino]pyridin-4-yl}methyl)-7-(pyridazin-3-yloxy)-2,3-dihydrospiro[1,3-benzoxazine-4,3′-oxetan]-2-one] were 0.005 to 0.05 µM and 0.05 to 0.2 µM.
Taken in the same sequence, the figures for `CNS(=O)(=O)Nc1cccc(CN2C(=O)Oc3c(ccc(Oc4ncco4)c3F)[C@@H]2C)c1F` (single isomer, unassigned) [Compound 89, (S)-8-fluoro-3-({2-fluoro-3-(methylsulfamoyl)amino]phenyl}methyl)-4-methyl-7-(1,3-oxazol-2-yloxy)-3,4-dihydro-2H-1,3-benzoxazin-2-one or (R)-8-fluoro-3-({2-fluoro-3-(methylsulfamoyl)amino]phenyl}methyl)-4-methyl-7-(1,3-oxazol-2-yloxy)-3,4-dihydro-2H-1,3-benzoxazin-2-one] were below 0.005 µM and 0.2 to 1 µM.
As for `CNS(=O)(=O)Nc1cccc(CN2C(=O)Oc3cc(Oc4ncco4)ccc3[C@H]2C)c1F` (single isomer, unassigned) [Compound 79, (R)-3-({2-fluoro-3-(methylsulfamoyl)amino]phenyl}methyl)-4-methyl-7-(1,3-oxazol-2-yloxy)-3,4-dihydro-2H-1,3-benzoxazin-2-one or (S)-3-({2-fluoro-3-(methylsulfamoyl)amino]phenyl}methyl)-4-methyl-7-(1,3-oxazol-2-yloxy)-3,4-dihydro-2H-1,3-benzoxazin-2-one], the values for the IC50 in the assay with NCI-H292 cells and on MEK1 were 0.01 to 0.1 µM and 0.005 to 0.05 µM, respectively.
As for `COC1CCN(S(=O)(=O)Nc2cccc(CN3Cc4ccc(OC(=O)N(C)C)cc4OC3=O)c2F)C1` (stereo not shown) [Compound 100, 3-(2-fluoro-3-((3-methoxypyrrolidine)-1-sulfonamido)benzyl)-2-oxo-3,4-dihydro-2H-benzo[e][1,3]oxazin-7-yl dimethylcarbamate], on MEK1, the IC50 lay within 0.005 to 0.05 µM. Moreover, the EC50 in the assay with BRAF-MEK1 lay within 0.2 to 1 µM.
For `CNS(=O)(=O)Nc1nccc(CN2C(=O)Oc3cc(Oc4cccnn4)ccc3C2(C)C)c1F` [Compound 32, 3-({3-fluoro-2-[(methylsulfamoyl)amino]pyridin-4-yl}methyl)-4,4-dimethyl-7-(pyridazin-3-yloxy)-3,4-dihydro-2H-1,3-benzoxazin-2-one] the same measures were 0.005 to 0.05 µM and 0.2 to 1 µM.
In the case of `CNS(=O)(=O)Nc1cccc(CN2C(=O)Oc3cc(OC(=O)N(C)C)ccc3C23CN(C)C3)c1F` [Compound 48, 3′-(2-fluoro-3-((N-methylsulfamoyl)amino)benzyl)-1-methyl-2′-oxo-2′,3′-dihydrospiro[azetidine-3,4′-benzo[e][1,3]oxazin]-7′-yl dimethylcarbamate], the IC50 on MEK1 was 0.005 to 0.05 µM. Moreover, in the assay on BRAF-MEK1, the EC50 fell in the range of 0.2 to 1 µM.
For the compound `CN(C)S(=O)(=O)Nc1cccc(CN2C(=O)Oc3cc(Oc4cccnn4)ccc3C2(C)C)c1F` [Compound 34, 3-{[3-(dimethylaminosulfonylamino)-2-fluorophenyl]methyl}-4,4-dimethyl-7-(3-pyridazinyloxy)-3,4-dihydro-2H-1,3-benzoxazin-2-one], the IC50 at MEK1 is below 0.005 µM. In addition, the EC50 in the assay with BRAF-MEK1 lay in the range of 0.2 to 1 µM.
